Numbering of substitutions follows the chain as printed.
What was measured:
Type in all cases: cell-based
GluD2 [1] = target: T1, GluD2 (Mus musculus, UniProt Q61625, A654T/Q674C); experiment: whole-cell patch-clamp photoswitching after covalent labeling
T1 construct: gene Grid2; pcDNA3-GluD2 expressed in HEK tsA201 cells
T1 sequence (Q61625 24-1007 A654T/Q674C): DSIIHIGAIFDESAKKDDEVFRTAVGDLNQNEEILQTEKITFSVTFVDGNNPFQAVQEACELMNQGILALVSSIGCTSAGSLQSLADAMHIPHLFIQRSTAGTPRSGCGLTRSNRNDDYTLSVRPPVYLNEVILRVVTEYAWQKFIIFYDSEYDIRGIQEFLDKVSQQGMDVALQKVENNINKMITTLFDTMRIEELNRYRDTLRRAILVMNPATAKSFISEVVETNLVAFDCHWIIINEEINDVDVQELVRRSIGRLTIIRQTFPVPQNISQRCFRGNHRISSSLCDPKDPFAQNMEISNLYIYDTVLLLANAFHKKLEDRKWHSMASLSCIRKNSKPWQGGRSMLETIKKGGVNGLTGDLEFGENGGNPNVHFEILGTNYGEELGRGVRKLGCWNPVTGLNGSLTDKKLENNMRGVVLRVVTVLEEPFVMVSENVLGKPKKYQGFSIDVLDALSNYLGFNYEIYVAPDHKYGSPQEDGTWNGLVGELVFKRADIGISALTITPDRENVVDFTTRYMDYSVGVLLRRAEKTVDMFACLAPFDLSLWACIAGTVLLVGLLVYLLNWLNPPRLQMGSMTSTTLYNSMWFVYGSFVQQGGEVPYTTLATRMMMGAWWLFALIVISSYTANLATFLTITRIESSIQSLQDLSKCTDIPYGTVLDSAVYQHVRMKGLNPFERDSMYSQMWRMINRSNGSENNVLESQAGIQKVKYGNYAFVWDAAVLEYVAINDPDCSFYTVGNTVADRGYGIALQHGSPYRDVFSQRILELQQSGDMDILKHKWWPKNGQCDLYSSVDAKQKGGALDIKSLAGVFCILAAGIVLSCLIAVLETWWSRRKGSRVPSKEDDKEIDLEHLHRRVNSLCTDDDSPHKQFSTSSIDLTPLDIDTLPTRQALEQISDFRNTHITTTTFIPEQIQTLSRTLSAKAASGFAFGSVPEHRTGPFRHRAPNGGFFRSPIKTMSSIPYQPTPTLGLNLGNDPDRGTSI

GluD2 [2] = target: T2, GluD2 (Mus musculus, UniProt Q61625, I677C); experiment: patch-clamp of DHPG-induced current under […] vs […] nm light; WT control insensitive
T2 construct: gene Grid2; non-Lurcher GluD2 (LiGluD2) co-expressed with mGlu1b in HEK tsA201 cells
T2 sequence (Q61625 24-1007 I677C): T1 sequence (Q61625 24-1007 A654T/Q674C) with T631A, C651Q, I654C

GluD2 [3] = target: T3, GluD2 (Mus musculus, UniProt Q61625, A654T/Q666C); experiment: whole-cell patch-clamp photoswitching after covalent labeling
T3 construct: gene Grid2; pcDNA3-GluD2 expressed in HEK tsA201 cells
T3 sequence (Q61625 24-1007 A654T/Q666C): T1 sequence (Q61625 24-1007 A654T/Q674C) with Q643C, C651Q

GluD2 [4] = target: T4, GluD2 (Mus musculus, UniProt Q61625, A654T/D670C); experiment: as above
T4 construct: gene Grid2; pcDNA3-GluD2 expressed in HEK tsA201 cells
T4 sequence (Q61625 24-1007 A654T/D670C): T1 sequence (Q61625 24-1007 A654T/Q674C) with D647C, C651Q

GluD2 [5] = target: T5, GluD2 (Mus musculus, UniProt Q61625, A654T/I677C); experiment: whole-cell patch-clamp dose-response ([…]) under […] nm light; […] under […] nm
T5 construct: gene Grid2; pcDNA3-GluD2 expressed in HEK tsA201 cells, conjugated with MAGu
T5 sequence (Q61625 24-1007 A654T/I677C): T1 sequence (Q61625 24-1007 A654T/Q674C) with C651Q, I654C

Row | IC50 (GluD2 [5]) | SMILES | % photoswitching (relative to pentamidine block) (GluD2 [1]) | % reduction of DHPG-induced current (535 vs 380 nm) (GluD2 [2]) | % photoswitching (relative to pentamidine block) (GluD2 [3]) | % photoswitching (relative to pentamidine block) (GluD2 [4])
1 | – | N=C(N)NCC(=O)Nc1ccc(/N=N/c2ccc(NC(=O)CCN3C(=O)C=CC3=O)cc2)cc1 [MAGu] | 20.5 % photoswitching (relative to pentamidine block) | 22.8 % reduction of DHPG-induced current (535 vs 380 nm) | 15.5 % photoswitching (relative to pentamidine block) | 14.6 % photoswitching (relative to pentamidine block)
2 | 5.1 µM | N=C(N)c1ccc(OCCCCCOc2ccc(C(=N)N)cc2)cc1 [Pentamidine] | – | – | – | –
